Laboratory results as given in patent US10294234B2, “HIV inhibitor compounds” (priority 2017, dated 2019).

System: HIV-1 (IIIB) in MT-4 cells
Assay: MT-4 HIV assay
Format: cell-based
Conditions: Human immunodeficiency virus 1, MT4, 120 h; HIV-1 (IIIB), MT-4 cells, 5 days, Cell Titer Glo; read-out: EC50
How it was run: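 MT-4 cells infected with HIV-1 IIIB (1:250 stock dilution) were incubated with 1:3 serially diluted compounds in RPMI with 10% FBS for 5 days at 37 °C. Cell Titer Glo luminescence was the readout. Plates included mock-infected wells, no-drug wells and 5 uM AZT controls.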

Row | Structure (SMILES) | EC50
1 | COC(=O)N[C@H](C(=O)N[C@@H](Cc1ccc(C#Cc2ccc(N3CC4CCC(C3)N4C3COC3)nc2)cc1)[C@@H](O)CN(Cc1c(F)cc(-c2ccccn2)cc1F)NC(=O)[C@@H](NC(=O)OC)C(C)(C)C)C(C)(C)C [Example 84, Methyl ((5S,8S,9S,14S)-5-(tert-butyl)-11-(2,6-difluoro-4-(pyridin-2-yl)benzyl)-9-hydroxy-15,15-dimethyl-8-(4-((6-(8-(oxetan-3-yl)-3,8-diazabicyclo[3.2.1]octan-3-yl)pyridin-3-yl)ethynyl)benzyl)-3,6,13-trioxo-2-oxa-4,7,11,12-tetraazahexadecan-14-yl)carbamate] | 3.23 nM
2 | CCC(=O)N[C@H](C(=O)N[C@@H](Cc1ccc(C#Cc2cnc(N3CC4CCC(C3)N4C3COC3)nc2)cc1)[C@@H](O)CN(Cc1c(F)cc(-c2ccn(C(F)F)n2)cc1F)NC(=O)[C@@H](NC(=O)CC)C(C)(C)C(F)(F)F)C(C)(C)C(F)(F)F [Example 181, (2S)—N-((2S,3S)-4-(1-(4-(1-(difluoromethyl)-1H-pyrazol-3-yl)-2,6-difluorobenzyl)-2-((S)-4,4,4-trifluoro-3,3-dimethyl-2-propionamidobutanoyl)hydrazinyl)-3-hydroxy-1-(4-((2-(8-(oxetan-3-yl)-3,8-diazabicyclo[3.2.1]octan-3-yl)pyrimidin-5-yl)ethynyl)phenyl)butan-2-yl)-4,4,4-trifluoro-3,3-dimethyl-2-propionamidobutanamide] | 8.5 nM
3 | COC(=O)N[C@H](C(=O)N[C@@H](Cc1ccc(C#Cc2ccc(N3CC4CCC(C3)N4C3COC3)nc2)cc1)[C@@H](O)CN(Cc1c(F)cc(-c2ccc(C(F)F)nc2)cc1F)NC(=O)[C@@H](NC(=O)OC)C(C)(C)C(F)(F)F)C(C)(C)C(F)(F)F [Example 100, Methyl ((5S,8S,9S,14S)-11-(4-(6-(difluoromethyl)pyridin-3-yl)-2,6-difluorobenzyl)-16,16,16-trifluoro-9-hydroxy-15,15-dimethyl-8-(4-((6-(8-(oxetan-3-yl)-3,8-diazabicyclo[3.2.1]octan-3-yl)pyridin-3-yl)ethynyl)benzyl)-3,6,13-trioxo-5-(1,1,1-trifluoro-2-methylpropan-2-yl)-2-oxa-4,7,11,12-tetraazahexadecan-14-yl)carbamate] | 7.96 nM
4 | COC(=O)N[C@H](C(=O)NN(Cc1ccc(-c2cnn(C3CC3)c2)cc1)C[C@H](O)[C@H](Cc1ccc(C#Cc2ccc(N3CC4CCC(C3)N4C3COC3)nc2)cc1)NC(=O)[C@@H](NC(=O)OC)C(C)(C)C(F)(F)F)C(C)(C)C [Example 117, Methyl ((5S,8S,9S,14S)-11-(4-(1-cyclopropyl-1H-pyrazol-4-yl)benzyl)-9-hydroxy-15,15-dimethyl-8-(4-((6-(8-(oxetan-3-yl)-3,8-diazabicyclo [3.2.1]octan-3-yl)pyridin-3-yl)ethynyl)benzyl)-3,6,13-trioxo-5-(1,1,1-trifluoro-2-methylpropan-2-yl)-2-oxa-4,7,11,12-tetraazahexadecan-14-yl)carbamate] | 4.15 nM
5 | COC(=O)N[C@H](C(=O)N[C@@H](Cc1ccc(C#Cc2ccc(N3CC4CCC(C3)N4C3COC3)nc2)cc1)[C@@H](O)CN(Cc1ccc(-c2cnn(C(F)F)c2)cc1F)NC(=O)[C@@H](NC(=O)OC)C(C)(C)C(F)(F)F)C(C)(C)C(F)(F)F [Example 157, Methyl ((5S,8S,9S,14S)-11-(4-(1-(difluoromethyl)-1H-pyrazol-4-yl)-2-fluorobenzyl)-16,16,16-trifluoro-9-hydroxy-15,15-dimethyl-8-(4-((6-(8-(oxetan-3-yl)-3,8-diazabicyclo[3.2.1]octan-3-yl)pyridin-3-yl)ethynyl)benzyl)-3,6,13-trioxo-5-(1,1,1-trifluoro-2-methylpropan-2-yl)-2-oxa-4,7,11,12-tetraazahexadecan-14-yl)carbamate] | 4.53 nM
